# Source: paper PMC7265341, “Quantifying CDK inhibitor selectivity in live cells” (Nature Communications, 2020)
# Where two headings read alike, the source gives them in different places.
# Tests used:
# CDK1/Cyclin E1 = CDK1/Cyclin E1 (Homo sapiens, UniProt P06493); experiment: NanoBRET live-cell target engagement, CDK1-NanoLuc/Cyclin E1 in HEK-293; type: binding; details: CDK1/E1, read-out: Inhibition at 10µM (%)
# CDK4/Cyclin D1 = CDK4/Cyclin D1 (Homo sapiens, UniProt P11802); experiment: NanoBRET live-cell target engagement, NanoLuc-CDK4/Cyclin D1 in HEK-293; type: binding; details: CDK4/D1, read-out: Inhibition at 10µM (%)
# CDK5/CDK5R1 = CDK5/CDK5R1 (Homo sapiens, UniProt Q00535); experiment: NanoBRET live-cell target engagement, CDK5-NanoLuc/CDK5R1 in HEK-293; type: binding; details: CDK5/CDK5R1, read-out: Inhibition at 10µM (%)
# CDK6/Cyclin D1 = CDK6/Cyclin D1 (Homo sapiens, UniProt Q00534); experiment: NanoBRET live-cell target engagement, NanoLuc-CDK6/Cyclin D1 in HEK-293; type: binding; details: CDK6/D1, read-out: Inhibition at 10µM (%)
# CDK7 = CDK7 (Homo sapiens, UniProt P50613); experiment: NanoBRET live-cell target engagement, NanoLuc-CDK7 in HEK-293; type: binding; details: CDK7, read-out: Inhibition at 10µM (%)
# CDK8/Cyclin C = CDK8/Cyclin C (Homo sapiens, UniProt P49336); experiment: NanoBRET live-cell target engagement, NanoLuc-CDK8/Cyclin C in HEK-293; type: binding; details: CDK8/C, read-out: Inhibition at 10µM (%)
# CDK9/Cyclin K = CDK9/Cyclin K (Homo sapiens, UniProt P50750); experiment: NanoBRET live-cell target engagement, NanoLuc-CDK9/Cyclin K in HEK-293; type: binding; details: CDK9/K, read-out: Inhibition at 10µM (%)
# CDK11A/Cyclin L2 = target: T1, CDK11A/Cyclin L2 (Homo sapiens, UniProt Q9UQ88); experiment: NanoBRET live-cell target engagement, CDK11A-NanoLuc/Cyclin L2 in HEK-293; type: binding; details: CDK11a/L2, read-out: Inhibition at 10µM (%)
# T1 sequence (Q9UQ88 1-783): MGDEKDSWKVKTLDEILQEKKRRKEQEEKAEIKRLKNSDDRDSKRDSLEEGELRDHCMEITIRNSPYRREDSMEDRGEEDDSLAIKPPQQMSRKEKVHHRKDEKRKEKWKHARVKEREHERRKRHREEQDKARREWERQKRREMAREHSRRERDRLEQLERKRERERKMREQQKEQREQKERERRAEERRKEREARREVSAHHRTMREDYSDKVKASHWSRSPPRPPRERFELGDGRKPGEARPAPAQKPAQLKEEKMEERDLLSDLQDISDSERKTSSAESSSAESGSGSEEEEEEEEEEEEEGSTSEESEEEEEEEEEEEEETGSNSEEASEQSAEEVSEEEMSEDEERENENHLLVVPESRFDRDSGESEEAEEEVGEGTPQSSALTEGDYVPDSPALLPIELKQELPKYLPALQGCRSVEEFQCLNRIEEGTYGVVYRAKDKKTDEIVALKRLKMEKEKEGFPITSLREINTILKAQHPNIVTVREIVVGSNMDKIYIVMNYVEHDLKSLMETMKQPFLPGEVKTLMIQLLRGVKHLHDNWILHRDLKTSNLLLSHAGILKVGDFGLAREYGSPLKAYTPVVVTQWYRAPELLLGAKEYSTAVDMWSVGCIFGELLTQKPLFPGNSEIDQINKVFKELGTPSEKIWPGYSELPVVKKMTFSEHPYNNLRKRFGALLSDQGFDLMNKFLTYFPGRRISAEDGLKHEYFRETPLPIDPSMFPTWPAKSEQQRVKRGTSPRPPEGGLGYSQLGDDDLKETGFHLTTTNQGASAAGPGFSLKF
# CDK11B/Cyclin L2 = CDK11B/Cyclin L2 (Homo sapiens, UniProt P21127); experiment: NanoBRET live-cell target engagement, CDK11B-NanoLuc/Cyclin L2 in HEK-293; type: binding; details: CDK11b/L2, read-out: Inhibition at 10µM (%)
# CDK12/Cyclin K = CDK12/Cyclin K (Homo sapiens, UniProt Q9NYV4); experiment: NanoBRET live-cell target engagement, CDK12-NanoLuc/Cyclin K in HEK-293; type: binding; details: CDK12/K, read-out: Inhibition at 10µM (%)
# CDK13/Cyclin K = CDK13/Cyclin K (Homo sapiens, UniProt Q14004); experiment: NanoBRET live-cell target engagement, CDK13-NanoLuc/Cyclin K in HEK-293; type: binding; details: CDK13/K, read-out: Inhibition at 10µM (%)
# CDK14/Cyclin Y = CDK14/Cyclin Y (Homo sapiens, UniProt O94921); experiment: NanoBRET live-cell target engagement, CDK14-NanoLuc/Cyclin Y in HEK-293; type: binding; details: CDK14/Y, read-out: Inhibition at 10µM (%)
# CDK15/Cyclin Y = CDK15/Cyclin Y (Homo sapiens, UniProt Q96Q40); experiment: NanoBRET live-cell target engagement, NanoLuc-CDK15/Cyclin Y in HEK-293; type: binding; details: CDK15/Y, read-out: Inhibition at 10µM (%)
# CDK16/Cyclin Y = CDK16/Cyclin Y (Homo sapiens, UniProt Q00536); experiment: NanoBRET live-cell target engagement, CDK16-NanoLuc/Cyclin Y in HEK-293; type: binding; details: CDK16/Y, read-out: Inhibition at 10µM (%)
# CDK17/Cyclin Y = CDK17/Cyclin Y (Homo sapiens, UniProt Q00537); experiment: NanoBRET live-cell target engagement, CDK17-NanoLuc/Cyclin Y in HEK-293; type: binding; details: CDK17/Y, read-out: Inhibition at 10µM (%)
# CDK18/Cyclin Y = CDK18/Cyclin Y (Homo sapiens, UniProt Q07002); experiment: NanoBRET live-cell target engagement, CDK18-NanoLuc/Cyclin Y in HEK-293; type: binding; details: CDK18/Y, read-out: Inhibition at 10µM (%)
# CDK20/Cyclin H = CDK20/Cyclin H (Homo sapiens, UniProt Q8IZL9); experiment: NanoBRET live-cell target engagement, NanoLuc-CDK20/Cyclin H in HEK-293; type: binding; details: CDK20/H, read-out: Inhibition at 10µM (%)
# CDK19/Cyclin C = CDK19/Cyclin C (Homo sapiens, UniProt Q9BWU1); experiment: NanoBRET live-cell target engagement, NanoLuc-CDK19/Cyclin C in HEK-293; details: read-out: Inhibition at 10µM (%), CDK19/C
# CDK10/Cyclin L2 = CDK10/Cyclin L2 (Homo sapiens, UniProt Q15131); experiment: NanoBRET live-cell target engagement, CDK10-NanoLuc/Cyclin L2 in HEK-293; details: read-out: Inhibition at 10µM (%), CDK10/L2
# Sequence of CDK1/Cyclin E1 (P06493 whole entry): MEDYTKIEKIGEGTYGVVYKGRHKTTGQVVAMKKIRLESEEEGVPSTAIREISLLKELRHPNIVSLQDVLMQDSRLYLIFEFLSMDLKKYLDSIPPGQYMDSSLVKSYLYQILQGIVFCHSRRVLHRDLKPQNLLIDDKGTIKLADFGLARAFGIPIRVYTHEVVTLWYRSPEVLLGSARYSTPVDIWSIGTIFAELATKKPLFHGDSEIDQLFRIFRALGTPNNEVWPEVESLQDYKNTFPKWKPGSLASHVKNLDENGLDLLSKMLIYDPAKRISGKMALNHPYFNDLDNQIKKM
# Sequence of CDK1/Cyclin E1 (P24864 whole entry partner): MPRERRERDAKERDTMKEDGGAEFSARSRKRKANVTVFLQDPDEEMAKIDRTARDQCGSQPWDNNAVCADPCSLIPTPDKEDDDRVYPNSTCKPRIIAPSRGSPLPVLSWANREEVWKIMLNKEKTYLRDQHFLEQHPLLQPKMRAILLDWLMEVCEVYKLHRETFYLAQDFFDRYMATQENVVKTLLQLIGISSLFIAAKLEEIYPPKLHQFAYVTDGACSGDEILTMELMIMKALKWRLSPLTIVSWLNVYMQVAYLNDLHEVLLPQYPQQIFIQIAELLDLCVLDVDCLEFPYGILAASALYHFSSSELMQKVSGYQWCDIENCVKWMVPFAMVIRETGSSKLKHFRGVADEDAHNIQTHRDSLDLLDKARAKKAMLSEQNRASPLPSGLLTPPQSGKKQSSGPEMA
# Sequence of CDK4/Cyclin D1 (P11802 whole entry): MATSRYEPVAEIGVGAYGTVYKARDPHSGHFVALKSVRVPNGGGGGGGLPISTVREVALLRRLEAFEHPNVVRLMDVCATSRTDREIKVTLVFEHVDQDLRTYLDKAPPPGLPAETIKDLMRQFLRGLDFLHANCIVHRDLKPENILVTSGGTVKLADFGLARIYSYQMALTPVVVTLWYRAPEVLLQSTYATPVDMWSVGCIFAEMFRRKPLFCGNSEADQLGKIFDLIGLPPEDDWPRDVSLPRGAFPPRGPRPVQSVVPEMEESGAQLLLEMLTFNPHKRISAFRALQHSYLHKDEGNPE
# Sequence of CDK4/Cyclin D1 (P24385 whole entry partner): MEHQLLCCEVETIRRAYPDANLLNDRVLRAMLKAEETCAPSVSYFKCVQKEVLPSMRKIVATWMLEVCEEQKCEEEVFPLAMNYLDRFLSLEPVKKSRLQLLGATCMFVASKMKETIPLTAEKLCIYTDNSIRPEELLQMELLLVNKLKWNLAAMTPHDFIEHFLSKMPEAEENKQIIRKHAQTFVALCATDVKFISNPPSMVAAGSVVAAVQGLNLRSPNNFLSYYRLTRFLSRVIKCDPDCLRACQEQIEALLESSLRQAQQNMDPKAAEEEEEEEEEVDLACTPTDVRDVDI
# Sequence of CDK15/Cyclin Y (Q96Q40 whole entry): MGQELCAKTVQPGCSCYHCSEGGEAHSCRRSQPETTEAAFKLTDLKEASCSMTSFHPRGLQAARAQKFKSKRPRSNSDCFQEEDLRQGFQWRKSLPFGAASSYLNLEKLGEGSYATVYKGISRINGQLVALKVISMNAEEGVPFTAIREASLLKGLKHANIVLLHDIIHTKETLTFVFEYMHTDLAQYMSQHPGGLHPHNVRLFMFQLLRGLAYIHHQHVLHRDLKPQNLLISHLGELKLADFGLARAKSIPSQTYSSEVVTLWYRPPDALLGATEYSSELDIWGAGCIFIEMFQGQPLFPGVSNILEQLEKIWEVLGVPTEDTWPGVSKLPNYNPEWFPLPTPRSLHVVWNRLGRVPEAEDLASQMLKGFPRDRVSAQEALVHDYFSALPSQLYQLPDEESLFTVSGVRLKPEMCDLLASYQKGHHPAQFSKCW
# Sequence of CDK15/Cyclin Y (Q8ND76 whole entry partner): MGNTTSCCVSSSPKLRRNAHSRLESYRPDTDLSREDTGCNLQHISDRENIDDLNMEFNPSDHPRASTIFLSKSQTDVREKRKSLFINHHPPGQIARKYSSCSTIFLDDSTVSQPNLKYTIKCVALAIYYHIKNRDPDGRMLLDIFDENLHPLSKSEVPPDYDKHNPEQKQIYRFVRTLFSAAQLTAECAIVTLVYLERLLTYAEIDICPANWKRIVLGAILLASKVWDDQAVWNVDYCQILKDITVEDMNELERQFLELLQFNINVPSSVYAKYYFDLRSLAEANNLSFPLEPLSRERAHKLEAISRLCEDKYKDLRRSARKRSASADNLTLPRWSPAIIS
# Sequence of CDK17/Cyclin Y (Q00537 whole entry): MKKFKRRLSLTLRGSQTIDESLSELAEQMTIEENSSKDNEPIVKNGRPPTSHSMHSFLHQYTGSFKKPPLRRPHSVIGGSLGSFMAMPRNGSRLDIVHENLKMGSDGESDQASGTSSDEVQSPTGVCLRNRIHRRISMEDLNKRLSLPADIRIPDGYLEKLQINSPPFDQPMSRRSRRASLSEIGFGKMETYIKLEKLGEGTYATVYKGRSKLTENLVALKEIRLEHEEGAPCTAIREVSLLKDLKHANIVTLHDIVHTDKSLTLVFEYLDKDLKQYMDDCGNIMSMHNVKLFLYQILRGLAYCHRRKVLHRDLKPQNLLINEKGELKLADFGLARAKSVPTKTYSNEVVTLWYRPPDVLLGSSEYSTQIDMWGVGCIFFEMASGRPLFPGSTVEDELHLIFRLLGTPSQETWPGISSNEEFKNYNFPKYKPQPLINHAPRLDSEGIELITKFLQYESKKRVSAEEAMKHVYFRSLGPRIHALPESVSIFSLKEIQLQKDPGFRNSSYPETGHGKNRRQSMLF
# Sequence of CDK17/Cyclin Y (Q8ND76 whole entry partner): as the sequence (Q8ND76 whole entry partner) above
# Sequence of CDK8/Cyclin C (P49336 whole entry): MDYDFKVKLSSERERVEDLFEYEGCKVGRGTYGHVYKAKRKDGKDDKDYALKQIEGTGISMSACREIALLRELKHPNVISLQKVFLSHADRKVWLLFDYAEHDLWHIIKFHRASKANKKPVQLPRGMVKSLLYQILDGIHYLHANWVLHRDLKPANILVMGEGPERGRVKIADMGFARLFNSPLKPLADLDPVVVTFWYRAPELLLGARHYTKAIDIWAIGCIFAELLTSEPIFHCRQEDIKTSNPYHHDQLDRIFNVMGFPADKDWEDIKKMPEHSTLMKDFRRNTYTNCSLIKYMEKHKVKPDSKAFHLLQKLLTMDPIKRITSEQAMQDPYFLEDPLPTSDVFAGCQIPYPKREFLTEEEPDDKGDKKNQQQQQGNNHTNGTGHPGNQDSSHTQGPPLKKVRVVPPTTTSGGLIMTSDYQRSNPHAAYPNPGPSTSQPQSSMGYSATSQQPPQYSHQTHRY
# Sequence of CDK8/Cyclin C (P24863 whole entry partner): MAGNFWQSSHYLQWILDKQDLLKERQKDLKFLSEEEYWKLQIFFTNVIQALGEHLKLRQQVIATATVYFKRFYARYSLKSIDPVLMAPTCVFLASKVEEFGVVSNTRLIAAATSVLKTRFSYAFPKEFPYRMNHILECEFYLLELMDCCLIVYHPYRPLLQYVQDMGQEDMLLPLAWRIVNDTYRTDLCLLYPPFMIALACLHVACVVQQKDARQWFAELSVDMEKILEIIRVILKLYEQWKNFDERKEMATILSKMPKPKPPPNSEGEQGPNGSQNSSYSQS
# Sequence of CDK7 (P50613 whole entry): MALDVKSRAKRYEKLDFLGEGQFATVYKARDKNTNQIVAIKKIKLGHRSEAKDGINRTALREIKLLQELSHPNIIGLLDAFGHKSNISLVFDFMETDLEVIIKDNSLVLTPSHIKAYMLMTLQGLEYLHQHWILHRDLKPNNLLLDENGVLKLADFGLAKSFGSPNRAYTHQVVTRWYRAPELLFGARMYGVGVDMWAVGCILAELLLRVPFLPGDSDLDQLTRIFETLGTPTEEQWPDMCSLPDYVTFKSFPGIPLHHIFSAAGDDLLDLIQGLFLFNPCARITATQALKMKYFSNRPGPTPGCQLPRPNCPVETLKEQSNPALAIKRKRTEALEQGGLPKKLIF
# Sequence of CDK19/Cyclin C (Q9BWU1 whole entry): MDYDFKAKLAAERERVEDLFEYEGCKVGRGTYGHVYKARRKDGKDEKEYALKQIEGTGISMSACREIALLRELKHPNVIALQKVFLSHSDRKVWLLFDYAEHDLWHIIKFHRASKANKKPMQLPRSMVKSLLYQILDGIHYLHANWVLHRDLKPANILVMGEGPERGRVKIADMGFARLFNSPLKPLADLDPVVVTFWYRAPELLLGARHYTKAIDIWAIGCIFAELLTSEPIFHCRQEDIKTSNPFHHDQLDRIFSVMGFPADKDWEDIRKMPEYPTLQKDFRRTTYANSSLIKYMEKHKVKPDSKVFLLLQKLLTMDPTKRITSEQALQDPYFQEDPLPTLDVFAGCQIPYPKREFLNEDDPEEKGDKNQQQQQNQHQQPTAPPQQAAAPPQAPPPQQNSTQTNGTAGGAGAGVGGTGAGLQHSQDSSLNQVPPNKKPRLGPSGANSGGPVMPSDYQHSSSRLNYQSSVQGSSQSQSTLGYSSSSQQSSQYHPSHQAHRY
# Sequence of CDK19/Cyclin C (P24863 whole entry partner): as the sequence (P24863 whole entry partner) above
# Sequence of CDK6/Cyclin D1 (Q00534 whole entry): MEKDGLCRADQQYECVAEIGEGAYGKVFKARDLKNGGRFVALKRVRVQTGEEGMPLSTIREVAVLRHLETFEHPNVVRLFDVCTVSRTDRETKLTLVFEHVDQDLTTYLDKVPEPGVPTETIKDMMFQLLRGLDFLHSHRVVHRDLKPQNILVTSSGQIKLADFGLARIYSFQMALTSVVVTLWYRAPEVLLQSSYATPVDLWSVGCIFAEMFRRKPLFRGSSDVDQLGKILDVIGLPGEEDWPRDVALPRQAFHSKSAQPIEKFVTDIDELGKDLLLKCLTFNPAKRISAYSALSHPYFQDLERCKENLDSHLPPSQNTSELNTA
# Sequence of CDK6/Cyclin D1 (P24385 whole entry partner): as the sequence (P24385 whole entry partner) above
compound,measurement,setting,value
CC(C)N1CCN(c2ccc(Nc3ncc4cc5n(c4n3)C3(CCCCC3)CNC5=O)nc2)CC1 [Lerociclib],inhibition at 10 µM,CDK1/Cyclin E1; average,7.7%
same,inhibition at 10 µM,CDK1/Cyclin E1; experiment 1,12.1%
same,inhibition at 10 µM,CDK1/Cyclin E1; experiment 2,3.2%
same,inhibition at 10 µM,CDK4/Cyclin D1; average,93.4%
same,inhibition at 10 µM,CDK4/Cyclin D1; experiment 1,96.8%
same,inhibition at 10 µM,CDK4/Cyclin D1; experiment 2,90.1%
same,inhibition at 10 µM,CDK5/CDK5R1; average,12.2%
same,inhibition at 10 µM,CDK5/CDK5R1; experiment 1,5.5%
same,inhibition at 10 µM,CDK5/CDK5R1; experiment 2,18.9%
same,inhibition at 10 µM,CDK6/Cyclin D1; average,98.9%
same,inhibition at 10 µM,CDK6/Cyclin D1; experiment 1,97%
same,inhibition at 10 µM,CDK6/Cyclin D1; experiment 2,101%
same,inhibition at 10 µM,CDK7; average,35.1%
same,inhibition at 10 µM,CDK7; experiment 1,12.3%
same,inhibition at 10 µM,CDK7; experiment 2,58%
same,inhibition at 10 µM,CDK8/Cyclin C; average,4.9%
same,inhibition at 10 µM,CDK8/Cyclin C; experiment 1,6.7%
same,inhibition at 10 µM,CDK8/Cyclin C; experiment 2,3%
same,inhibition at 10 µM,CDK9/Cyclin K; average,29.3%
same,inhibition at 10 µM,CDK9/Cyclin K; experiment 1,31%
same,inhibition at 10 µM,CDK9/Cyclin K; experiment 2,27.6%
same,inhibition at 10 µM,CDK11A/Cyclin L2; average,7.4%
same,inhibition at 10 µM,CDK11A/Cyclin L2; experiment 1,2%
same,inhibition at 10 µM,CDK11A/Cyclin L2; experiment 2,12.8%
same,inhibition at 10 µM,CDK11B/Cyclin L2; average,16.1%
same,inhibition at 10 µM,CDK11B/Cyclin L2; experiment 1,0.226%
same,inhibition at 10 µM,CDK11B/Cyclin L2; experiment 2,32%
same,inhibition at 10 µM,CDK12/Cyclin K; average,8.7%
same,inhibition at 10 µM,CDK12/Cyclin K; experiment 1,-0.9%
same,inhibition at 10 µM,CDK12/Cyclin K; experiment 2,18.4%
same,inhibition at 10 µM,CDK13/Cyclin K; average,-0.247%
same,inhibition at 10 µM,CDK13/Cyclin K; experiment 1,4.2%
same,inhibition at 10 µM,CDK13/Cyclin K; experiment 2,-4.7%
same,inhibition at 10 µM,CDK14/Cyclin Y; average,29.2%
same,inhibition at 10 µM,CDK14/Cyclin Y; experiment 1,25.1%
same,inhibition at 10 µM,CDK14/Cyclin Y; experiment 2,33.2%
same,inhibition at 10 µM,CDK15/Cyclin Y; average,14.9%
same,inhibition at 10 µM,CDK15/Cyclin Y; experiment 1,5%
same,inhibition at 10 µM,CDK15/Cyclin Y; experiment 2,24.7%
same,inhibition at 10 µM,CDK16/Cyclin Y; experiment 1,77.1%
same,inhibition at 10 µM,CDK16/Cyclin Y; experiment 2,32%
same,inhibition at 10 µM,CDK17/Cyclin Y; average,58.5%
same,inhibition at 10 µM,CDK17/Cyclin Y; experiment 1,75.6%
same,inhibition at 10 µM,CDK17/Cyclin Y; experiment 2,41.4%
same,inhibition at 10 µM,CDK18/Cyclin Y; average,19.5%
same,inhibition at 10 µM,CDK18/Cyclin Y; experiment 1,22.1%
same,inhibition at 10 µM,CDK18/Cyclin Y; experiment 2,16.8%
same,inhibition at 10 µM,CDK20/Cyclin H; experiment 1,10.2%
same,inhibition at 10 µM,CDK20/Cyclin H; experiment 2,7.2%
same,inhibition at 10 µM,CDK19/Cyclin C; average,13%
same,inhibition at 10 µM,CDK19/Cyclin C; experiment 1,7.9%
same,inhibition at 10 µM,CDK19/Cyclin C; experiment 2,18.2%
same,inhibition at 10 µM,CDK10/Cyclin L2; average,7.8%
same,inhibition at 10 µM,CDK10/Cyclin L2; experiment 1,9.5%
same,inhibition at 10 µM,CDK10/Cyclin L2; experiment 2,6.2%
